Assay results published in US12415834B2, “GhR-binding peptide and composition comprising same” (priority 2021, dated 2025).
Starred links: 1 amine or outer side, 2 acyl side, 3 side chain; linkers in the order of their positions; H or OH if unused. Positions of bridges follow the written chain, without caps; N, C: chain ends. Non-standard residues stand in square brackets, D forms with d. Residues, ends and D or L forms follow the SMILES beside them. Groups on a side chain read outwards from the residue. *: point of attachment. X10 = NC(=O)[C@H](CCCCN*)NC(=O)CC[C@H](NC(=O)CC[C@H](NC(=O)CCCc1ccc(I)cc1)C(=O)O)C(=O)O; Trp(1-CH2CO) = O=C([C@H](Cc1cn(CC(=O)[*:3])c2ccccc12)N[*:1])[*:2]; Trp(5-OH) = N[C@@H](Cc1c[nH]c2ccc(O)cc12)C(=O)O; Phe(4-COOH) = N[C@@H](Cc1ccc(C(=O)O)cc1)C(=O)O; C16 diacid = O=C(O)CCCCCCCCCCCCCCC(=O)*; γGlu = O=C(O)[C@H](CCC(=O)[*:2])N[*:1]; NMeK = CN[C@@H](CCCCN)C(=O)O; X4 = O=C(CN[*:2])[*:1]; Aib = CC(C)(N)C(=O)O

These molecules were tested against T1, Recombinant human GhR-Fc protein (Homo sapiens, UniProt P10912) (assay: SPR binding assay (Biacore T200, single-cycle kinetics) of peptides against immobilized human GhR-Fc). Settings: SPR, hGhR; Table 1 bicyclic peptides; KD calculated from ka and kd; read-out: KD.
T1 construct: purchased R&D Systems
T1 sequence (P10912 with tags, fused parts or gaps limits assumed): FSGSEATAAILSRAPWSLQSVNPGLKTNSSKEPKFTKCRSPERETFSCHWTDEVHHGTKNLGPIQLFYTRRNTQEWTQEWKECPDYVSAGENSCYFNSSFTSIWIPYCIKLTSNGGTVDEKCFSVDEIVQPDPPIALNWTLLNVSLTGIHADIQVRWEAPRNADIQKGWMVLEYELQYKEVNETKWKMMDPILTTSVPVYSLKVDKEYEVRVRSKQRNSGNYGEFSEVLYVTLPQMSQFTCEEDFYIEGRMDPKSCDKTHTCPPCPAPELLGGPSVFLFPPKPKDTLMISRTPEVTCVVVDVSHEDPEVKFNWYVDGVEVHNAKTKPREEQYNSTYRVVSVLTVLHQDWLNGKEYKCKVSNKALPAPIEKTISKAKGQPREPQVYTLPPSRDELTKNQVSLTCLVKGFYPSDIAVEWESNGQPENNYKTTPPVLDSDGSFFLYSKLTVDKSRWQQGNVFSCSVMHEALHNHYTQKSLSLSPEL
In short: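 Human GhR-Fc amine-coupled to a CM5 chip at pH 4.0; running buffer HBS-EP with 1% DMSO. Peptides measured by single-cycle kinetics on Biacore T200, with solvent correction and baseline subtraction. KD calculated from fitted ka and kd.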
`CC(C)[C@@H]1NC(=O)[C@H](C(C)C)NC(=O)[C@@H]2CCCCNC(=O)Cn3cc(c4ccccc43)C[C@H](NC(=O)[C@H](CC(N)=O)NC(=O)[C@H](CO)NC1=O)C(=O)N[C@@H](Cc1ccc(C(=O)O)cc1)C(=O)N[C@@H](CCCCN)C(=O)N[C@@H](Cc1c[nH]c3ccc(O)cc13)C(=O)NC(C)(C)C(=O)N[C@@H](C(C)C)C(=O)N[C@H](C(=O)NCC(=O)N1CCC[C@H]1C(=O)N[C@H](CO)C(=O)N[C@H](CO)C(=O)N[C@H](CO)C(=O)N[C@@H](CCCCNC(=O)CC[C@H](NC(=O)CC[C@H](NC(=O)CCCCCCCCCCCCCCC(=O)O)C(=O)O)C(=O)O)C(N)=O)CSCC(=O)N[C@@H](Cc1ccc(O)cc1)C(=O)N2C` [Compound 25] ({CH2CO}-Y[NMeK]VVSN[Trp(1-CH2CO)][Phe(4-COOH)]K[Trp(5-OH)][Aib]VCGP[dS][dS][dS]K([γGlu-γGlu-C16 diacid])-NH2; lactam 2-7; thioether N-13) showed a Kd of 2.23 nM.
`CC(C)[C@@H]1NC(=O)[C@H](C(C)C)NC(=O)[C@@H]2CCCCNC(=O)Cn3cc(c4ccccc43)C[C@H](NC(=O)[C@H](CC(N)=O)NC(=O)[C@H](CO)NC1=O)C(=O)N[C@@H](Cc1ccc(O)cc1)C(=O)N[C@@H](CCCCN)C(=O)N[C@@H](Cc1c[nH]c3ccc(O)cc13)C(=O)NC(C)(C)C(=O)N[C@@H](C(C)C)C(=O)N[C@H](C(=O)NCCCC[C@H](NC(=O)CC[C@H](NC(=O)CC[C@H](NC(=O)CCCc1ccc(I)cc1)C(=O)O)C(=O)O)C(N)=O)CSCC(=O)N[C@@H](Cc1ccc(O)cc1)C(=O)N2C` [Compound 32] ({CH2CO}-Y[NMeK]VVSN[Trp(1-CH2CO)]YK[Trp(5-OH)][Aib]VC-X10; lactam 2-7; thioether N-13) gave a Kd of 0.98 nM.
`CC(C)[C@@H]1NC(=O)[C@H](C(C)C)NC(=O)[C@@H]2CCCCNC(=O)CNC(=O)Cn3cc(c4ccccc43)C[C@H](NC(=O)[C@H](CC(N)=O)NC(=O)[C@H](CO)NC1=O)C(=O)N[C@@H](Cc1ccc(O)cc1)C(=O)N[C@@H](CCCCN)C(=O)N[C@@H](Cc1c[nH]c3ccc(O)cc13)C(=O)NC(C)(C)C(=O)N[C@@H](C(C)C)C(=O)N[C@H](C(=O)NCC(N)=O)CSCC(=O)N[C@@H](Cc1ccc(O)cc1)C(=O)N2C` [Compound 2] ({CH2CO}-Y[NMeK]VVSN[Trp(1-CH2CO)]YK[Trp(5-OH)][Aib]VCG-NH2; linker 2-7 via X4; thioether N-13; C-terminus assumed) showed a Kd of 1.22 nM.
